Where a name gives a salt, the structure may show the parent alone.
Row | SMILES | melting point
1 | O=C(O)c1cccc(-c2nn(Cc3cccc(Cl)c3)c(=S)[nH]2)c1 [Example 12, 3-[1-[(3-Chlorophenyl)methyl]-4,5-dihydro-5-thioxo-1H-1,2,4-triazol-3-yl]-benzoic acid] | 314 to 316 °C
2 | CN(C)C(=O)c1cccc(-c2nn(Cc3cccc(Cl)c3)c(=S)[nH]2)c1 [Example 16, 3-{1-[(3-Chlorophenyl)methyl]-1,2-dihydro-5thioxo-1H[1,2,4]triazol-3-yl}-N,N-dimethylbenzamide] | 184 to 187 °C
3 | COC(=O)C(CO)NC(=O)c1cccc(-c2nn(Cc3cccc(Cl)c3)c(=S)[nH]2)c1 (stereo not shown) [Example 14] | 188 to 196 °C
4 | O=C(O)c1ccccc1-c1nn(Cc2cccc(Cl)c2)c(=S)[nH]1 [Example 11, 2-[1-[(3-Chlorophenyl)methyl]-4,5-dihydro-5-thioxo-1H-1,2,4-triazol-3-yl]-benzoic acid] | 234 to 238 °C
5 | O=C(NCCO)c1ccc(-c2nn(Cc3cccc(Cl)c3)c(=S)[nH]2)cc1 [Example 7, 4-[1-[(3-Chlorophenyl)methyl]-4,5-dihydro-5-thioxo-1H-1,2,4-triazol-3-yl]-N-(2-hydroxyethyl)-benzamide] | 188 to 190 °C
6 | CC(C)CCNC(=O)c1ccc(-c2nn(Cc3cccc(Cl)c3)c(=S)[nH]2)cc1 [Example 5, 4-[1-[(3-Chlorophenyl)methyl]-4,5-dihydro-5-thioxo-1H-1,2,4-triazol-3-yl]-N-(3-methylbutyl)-benzamide] | 218 to 220 °C
7 | CN(C)C(=O)c1ccc(-c2nn(Cc3cccc(Cl)c3)c(=S)[nH]2)cc1 [Example 4, 4-[1-[(3-Chlorophenyl)methyl]-4,5-dihydro-5-thioxo-1H-1,2,4-triazol-3-yl]-N,N-dimethyl-benzamide] | 302 to 304 °C
8 | O=C(c1ccc(-c2nn(Cc3cccc(Cl)c3)c(=S)[nH]2)cc1)N1CCN(c2cccc(Cl)c2)CC1 (as salt: hydrochloride) [Example 8, 2-[(3-Chlorophenyl)methyl]-5-[4-[[4-(3-chlorophenyl)-1-piperazinyl]carbonyl]phenyl]-2,4-dihydro-3H-1,2,4-triazole-3-thione] | 260 to 262 °C
9 | CN(C)CC(C)(C)CNC(=O)c1cccc(-c2nn(Cc3cccc(Cl)c3)c(=S)[nH]2)c1 [Example 15, 3-{1-[(3-Chlorophenyl)methyl]-1,2-dihydro-5thioxo-1H[1,2,4]triazol-3-yl}-N-(2-methyl-2-dimethylaminomethylpropyl)benzamide] | 173 to 175 °C
10 | COC(=O)c1ccc(-c2nn(Cc3cccc(Cl)c3)c(=S)[nH]2)cc1 [Example 2, Methyl 4-[1-[(3-Chlorophenyl)methyl]-4,5-dihydro-5-thioxo-1H-1,2,4-triazol-3-yl]-benzoate] | 263.5 to 264.5 °C
11 | C[C@@H](NC(=O)c1ccc(-c2nn(Cc3cccc(Cl)c3)c(=S)[nH]2)cc1)[C@@H](O)c1ccccc1 [Example 6, [1R, 2S]-4-[1-[(3-Chlorophenyl)methyl]-4,5-dihydro-5-thioxo-1H-1,2,4-triazol-3-yl]-N-(2-hydroxy-1-methyl-2-phenylethyl)-benzamide] | 220 to 222 °C
12 | O=C(O)c1ccc(-c2nn(Cc3cccc(Cl)c3)c(=S)[nH]2)cc1 [Example 1, 4-[1-[(3-Chlorophenyl)methyl]-4,5-dihydro-5-thioxo-1H-1,2,4-triazol-3-yl]-benzoic acid] | 302 °C
13 | O=C(NCCF)c1cccc(Cn2nc(-c3ccccc3Cl)[nH]c2=S)c1 [Example 18] | 165 to 168 °C
14 | NC(=O)c1ccc(-c2nn(Cc3cccc(Cl)c3)c(=S)[nH]2)cc1 [Example 3, 4-[1-[(3-Chlorophenyl)methyl]-4,5dihydro-5-thioxo-1H-1,2,4-triazol-3-yl]-benzamide] | 310 to 312 °C
15 | N#CCNC(=O)c1cccc(Cn2nc(-c3ccccc3Cl)[nH]c2=S)c1 [Example 17] | 178 to 182 °C
16 | NS(=O)(=O)c1ccc(-c2nn(Cc3cccc(Cl)c3)c(=S)[nH]2)cc1 [Example 13, 4-[1-[(3-chlorophenyl)methyl]-4,5dihydro-5-thioxo-1H-1,2,4-triazol-3-yl]-benzenesulfonamide] | 281 to 283 °C

— patent US20040214864A1, “Novel compounds” (priority 2000, published 2004)
